Results published in patent US8183262B2, “Pyridine derivatives as mGluR2 antagonists” (Hoffmann-La Roche Inc., priority 2007, dated 2012).

SMILES | melting point
CC(C)(C)NS(=O)(=O)c1cnc(-c2cn(-c3cc(C(F)(F)F)cc(-c4ccc(C(F)(F)F)cc4)n3)cn2)s1 [Example 281, 2-{1-[4-Trifluoromethyl-6-(4-trifluoromethyl-phenyl)-pyridin-2-yl]-1H-imidazol-4-yl}-thiazole-5-sulfonic acid tert-butylamide] | 236 °C
NS(=O)(=O)c1cccc(-c2cn(-c3cc(C(F)(F)F)cc(-c4ccc(C(F)(F)F)cc4)n3)cn2)c1 [Example 283, 3-{1-[4-Trifluoromethyl-6-(4-trifluoromethyl-phenyl)-pyridin-2-yl]-1H-imidazol-4-yl}-benzenesulfonamide] | > 266 °C
NS(=O)(=O)c1cnc(-c2cn(-c3cc(C(F)(F)F)cc(-c4ccc(C(F)(F)F)cc4)n3)cn2)s1 [Example 284, 2-{1-[4-Trifluoromethyl-6-(4-trifluoromethyl-phenyl)-pyridin-2-yl]-1H-imidazol-4-yl}-thiazole-5-sulfonic acid amide] | > 266 °C
CC(C)(C)NS(=O)(=O)c1cccc(-c2cc(-c3cc(C(F)(F)F)cc(-c4ccc(C(F)(F)F)cc4)n3)ccn2)c1 [Example 285, N-tert-Butyl-3-[4-trifluoromethyl-6-(4-trifluoromethyl-phenyl)-[2,4′]bipyridinyl-2′-yl]-benzenesulfonamide] | 196 °C
NS(=O)(=O)c1cncc(-c2cn(-c3cc(C(F)(F)F)cc(-c4ccc(C(F)(F)F)cc4)n3)cn2)c1 [Example 290, 5-{1-[4-Trifluoromethyl-6-(4-trifluoromethyl-phenyl)-pyridin-2-yl]-1H-imidazol-4-yl}-pyridine-3-sulfonic acid amide] | > 250 °C
CC(C)(CO)NS(=O)(=O)c1cccc(-c2cn(-c3cc(C(F)(F)F)cc(-c4ccc(C(F)(F)F)cc4)n3)cn2)c1 [Example 291, N-(2-Hydroxy-1,1-dimethyl-ethyl)-3-{1-[4-trifluoromethyl-6-(4-trifluoromethyl-phenyl)-pyridin-2-yl]-1H-imidazol-4-yl}-benzenesulfonamide] | 150 °C (dec.)
Cc1nc(-c2cn(-c3cc(-c4ccc(C(F)(F)F)cc4)cc(C(F)(F)F)n3)cn2)sc1S(=O)(=O)NC(C)(C)C [Example 300, 4-Methyl-2-{1-[6-trifluoromethyl-4-(4-trifluoromethyl-phenyl)-pyridin-2-yl]-1H-imidazol-4-yl}-thiazole-5-sulfonic acid tert-butylamide] | 260 °C
CC(C)(C)NS(=O)(=O)c1ccc(-c2cn(-c3cc(-c4ccc(C(F)(F)F)cc4)cc(C(F)(F)F)n3)cn2)s1 [Example 301, 5-{1-[6-Trifluoromethyl-4-(4-trifluoromethyl-phenyl)-pyridin-2-yl]-1H-imidazol-4-yl}-thiophene-2-sulfonic acid tert-butylamide] | > 250 °C
CC(C)(C)NS(=O)(=O)c1cnc(-c2cn(-c3cc(-c4ccc(C(F)(F)F)cc4)cc(C(F)(F)F)n3)cn2)s1 [Example 302, 2-{1-[6-Trifluoromethyl-4-(4-trifluoromethyl-phenyl)-pyridin-2-yl]-1H-imidazol-4-yl}-thiazole-5-sulfonic acid tert-butylamide] | 252 °C
Cc1cc(-c2ccc(C(F)(F)F)cc2)cc(-c2ccnc(-c3ccc(S(=O)(=O)NC(C)(C)C)s3)n2)n1 [Example 303, 5-{4-[6-Methyl-4-(4-trifluoromethyl-phenyl)-pyridin-2-yl]-pyrimidin-2-yl}-thiophene-2-sulfonic acid tert-butylamide] | 242 °C (dec.)
Cc1nc(-c2cn(-c3cc(-c4ccc(C(F)(F)F)cc4)cc(C(F)(F)F)n3)cn2)sc1S(N)(=O)=O [Example 312, 4-Methyl-2-{1-[6-trifluoromethyl-4-(4-trifluoromethyl-phenyl)-pyridin-2-yl]-1H-imidazol-4-yl}-thiazole-5-sulfonic acid amide] | 170 °C (dec.)
NS(=O)(=O)c1ccc(-c2cn(-c3cc(-c4ccc(C(F)(F)F)cc4)cc(C(F)(F)F)n3)cn2)s1 [Example 314, 5-{1-[6-Trifluoromethyl-4-(4-trifluoromethyl-phenyl)-pyridin-2-yl]-1H-imidazol-4-yl}-thiophene-2-sulfonic acid amide] | 237 °C (dec.)
CC(C)(C)NS(=O)(=O)c1ccc(-c2cc(-c3cc(C(F)(F)F)cc(-c4ccc(C(F)(F)F)cc4)n3)ccn2)s1 [Example 319, 5-[4-Trifluoromethyl-6-(4-trifluoromethyl-phenyl)-[2,4′]bipyridinyl-2′-yl]-thiophene-2-sulfonic acid tert-butylamide] | 220 °C
NS(=O)(=O)c1ccc(-c2cc(-c3cc(C(F)(F)F)cc(-c4ccc(C(F)(F)F)cc4)n3)ccn2)s1 [Example 321, 5-[4-Trifluoromethyl-6-(4-trifluoromethyl-phenyl)-[2,4′]bipyridinyl-2′-yl]-thiophene-2-sulfonic acid amide] | 97 °C (dec.)

More lines, now with the values ahead:

melting point | SMILES
211 °C | Cc1cc(-c2ccc(C(F)(F)F)cc2)nc(-c2cccc(-c3ccc(S(N)(=O)=O)s3)c2)c1 [Example 273, 5-{3-[4-Methyl-6-(4-trifluoromethyl-phenyl)-pyridin-2-yl]-phenyl}-thiophene-2-sulfonic acid amide]
203 °C | Cc1cc(-c2ccc3c(c2)OCO3)cc(-c2cccc(-c3ccc(N)nc3)c2)n1 [Example 276, 5-[3-(4-Benzo[1,3]dioxol-5-yl-6-methyl-pyridin-2-yl)-phenyl]-pyridin-2-ylamine]
227 °C (dec.) | NS(=O)(=O)c1cccc(-c2cc(-c3cc(C(F)(F)F)cc(-c4ccc(C(F)(F)F)cc4)n3)ccn2)c1 [Example 286, 3-[4-Trifluoromethyl-6-(4-trifluoromethyl-phenyl)-[2,4′]bipyridinyl-2′-yl]-benzenesulfonamide]
189 °C | Cc1cc(-c2ccc(C(F)(F)F)cc2)cc(-c2ccnc(-c3cccc(S(=O)(=O)NC(C)(C)C)c3)c2)n1 [Example 287, N-tert-Butyl-3-[6-methyl-4-(4-trifluoromethyl-phenyl)-[2,4′]bipyridinyl-2′-yl]-benzenesulfonamide]
> 250 °C | Cc1cc(-c2ccc(C(F)(F)F)cc2)cc(-c2ccnc(-c3cccc(S(N)(=O)=O)c3)c2)n1 [Example 289, 3-[6-Methyl-4-(4-trifluoromethyl-phenyl)-[2,4′]bipyridinyl-2′-yl]-benzenesulfonamide]
235 °C (dec.) | Cc1cc(-c2ccc(C(F)(F)F)cc2)cc(-c2cncc(-c3cccc(S(N)(=O)=O)c3)c2)n1 [Example 295, 3-[6-Methyl-4-(4-trifluoromethyl-phenyl)-[2,3′]bipyridinyl-5′-yl]-benzenesulfonamide]
> 250 °C | NS(=O)(=O)c1cccc(-c2cn(-c3cc(-c4ccc(C(F)(F)F)cc4)cc(C(F)(F)F)n3)cn2)c1 [Example 296, 3-{1-[6-Trifluoromethyl-4-(4-trifluoromethyl-phenyl)-pyridin-2-yl]-1H-imidazol-4-yl}-benzenesulfonamide]
189 °C | Cc1cc(-c2ccc(C(F)(F)F)cc2)nc(-c2ccnc(-c3cccc(S(=O)(=O)NC(C)(C)C)c3)c2)c1 [Example 297, N-tert-Butyl-3-[4-methyl-6-(4-trifluoromethyl-phenyl)-[2,4′]bipyridinyl-2′-yl]-benzenesulfonamide]
225 °C | Cc1cc(-c2ccc(C(F)(F)F)cc2)cc(-c2ccnc(-c3ccc(S(=O)(=O)NC(C)(C)C)s3)c2)n1 [Example 304, 5-[6-Methyl-4-(4-trifluoromethyl-phenyl)-[2,4′]bipyridinyl-2′-yl]-thiophene-2-sulfonic acid tert-butylamide]
227 °C | Cc1cc(-c2ccc(C(F)(F)F)cc2)cc(-c2cccc(-c3ccc(S(=O)(=O)NC(C)(C)C)s3)n2)n1 [Example 305, 5-[6′-Methyl-4′-(4-trifluoromethyl-phenyl)-[2,2′]bipyridinyl-6-yl]-thiophene-2-sulfonic acid tert-butylamide]
162 °C (dec.) | Cc1cc(-c2ccc(C(F)(F)F)cc2)cc(-c2ccnc(-c3cccc(N)c3)c2)n1 [Example 307, 3-[6-Methyl-4-(4-trifluoromethyl-phenyl)-[2,4′]bipyridinyl-2′-yl]-phenylamine]
> 250 °C | Cc1cc(-c2ccc(C(F)(F)F)cc2)nc(-c2ccnc(-c3cccc(S(N)(=O)=O)c3)n2)c1 [Example 308, 3-{4-[4-Methyl-6-(4-trifluoromethyl-phenyl)-pyridin-2-yl]-pyrimidin-2-yl}-benzenesulfonamide]
238 °C | Cc1cc(-c2ccc(C(F)(F)F)cc2)nc(-c2ccnc(-c3cccc(S(N)(=O)=O)c3)c2)c1 [Example 309, 3-[4-Methyl-6-(4-trifluoromethyl-phenyl)-[2,4′]bipyridinyl-2′-yl]-benzenesulfonamide]
229 °C | Cc1cc(-c2ccc(C(F)(F)F)cc2)nc(-c2cccc(-c3cccc(S(N)(=O)=O)c3)n2)c1 [Example 310, 3-[4′-Methyl-6′-(4-trifluoromethyl-phenyl)-[2,2′]bipyridinyl-6-yl]-benzenesulfonamide]
> 250 °C | Cc1cc(-c2ccc(C(F)(F)F)cc2)cc(-c2ccnc(-c3ccc(S(N)(=O)=O)s3)n2)n1 [Example 315, 5-{4-[6-Methyl-4-(4-trifluoromethyl-phenyl)-pyridin-2-yl]-pyrimidin-2-yl}-thiophene-2-sulfonic acid amide]
> 250 °C | Cc1cc(-c2ccc(C(F)(F)F)cc2)cc(-c2ccnc(-c3ccc(S(N)(=O)=O)s3)c2)n1 [Example 316, 5-[6-Methyl-4-(4-trifluoromethyl-phenyl)-[2,4′]bipyridinyl-2′-yl]-thiophene-2-sulfonic acid amide]
243 °C (dec.) | Cc1cc(-c2ccc(C(F)(F)F)cc2)cc(-c2cccc(-c3ccc(S(N)(=O)=O)s3)n2)n1 [Example 317, 5-[6′-Methyl-4′-(4-trifluoromethyl-phenyl)-[2,2′]bipyridinyl-6-yl]-thiophene-2-sulfonic acid amide]
228 °C (dec.) | Cc1cc(-c2ccc(C(F)(F)F)cc2)nc(-c2ccnc(-c3ccc(S(N)(=O)=O)s3)c2)c1 [Example 323, 5-[4-Methyl-6-(4-trifluoromethyl-phenyl)-[2,4′]bipyridinyl-2′-yl]-thiophene-2-sulfonic acid amide]
